Measured values: a melting point compilation (Tetko et al.; mined from patent text by program, amines drawn as free bases though some values may be those of a salt)

| Structure (SMILES) | melting point [°C] |
| --- | --- |
| CCCOc1cc(-c2cc3c(=O)[nH]c(C)nc3cc2C(C)C)ccc1Cl | 236 |
| CC1CC(=O)NN=C1c1ccc(NC(=NC#N)NCc2ccccn2)cc1 (stereo not given) | 212 to 214 |
| CCCOc1ccc(C(=O)CC(=O)C(C)(C)C)cc1OC | 55.5 to 56.7 |
| COC(=O)CCc1cc2nc(Cl)ccc2n1S(=O)(=O)c1ccc2c(c1)CCN2C(C)=O | 66 |
| COC(=O)c1cccc(-c2nc(-c3ccc(OC)cc3)cs2)c1 | 108 to 109 |
| COc1cc2c(c3c1OC(C)(C)C3)C(c1cccc(N3CCN(C(=O)OC(C)(C)C)S3(=O)=O)c1)=NC(C)(C)C2 | 157 to 159 |
| COc1cc(C)cc(C(=O)O)c1C12OC1C(=O)c1c(O)cccc1C2=O (stereo not given) | 267 to 268 |
| C[C@H](NC(=O)C[C@@H](CC(=O)O)c1ccc(F)cc1)c1ccccc1 | 195 to 196 |
| CCOC(=O)c1c(Cl)nc(CC)n1Cc1ccc2oc(-c3ccccc3N)c(Br)c2c1 | 53 to 56 |
| Cc1cccc(C)c1NC(=O)N=C1N(C)CC(=O)N1C | 116 to 118 |
| COC(=O)c1cc2n(n1)-c1ccc(Cl)cc1C(c1ccccc1)NC2=O (stereo not given) | 236 to 238 |
| Cc1cnc(C(=O)c2[nH]c3cc(Cl)ccc3c2CC(=O)O)c(C)c1 | 199 to 200 |
| O=Cc1cc(Oc2ccccc2)ccc1O | 54 to 55 |
| CC(C)(Oc1ccc(NC(=O)Oc2ccc(Cl)cc2)cc1)C(=O)O | 179 to 182 |
| COc1ccc2sc(C(N)=O)c(S(=O)(=O)C(C)C)c2c1 | 169 to 170 |
| N=C(N)Nc1nc(CCCCC(N)=NO)cs1 | 167 to 168 |
| COc1ccc(Cn2cnc3c(Cl)nc([N+](=O)[O-])nc32)cc1 | 181 to 182 |
| CCOC(=O)N1CCC2(CC1)N=C(N)c1c(F)cccc1O2 | 114 to 116 |
| Cc1cccc(C2=CCN(CCCCCC(=O)N3Cc4ccccc4C3)CC2)c1C#N | 71 |
| CCCn1c(COC)nc2c(N)nc3ccc(OCCC4CCCN4C)cc3c21 (stereo not given) | 155 to 157 |
| OCCN(Cc1ccc2ccccc2c1)C1(c2nccc3sccc23)CCNCC1 | 53 to 55 |
| CN(Cc1ccc(NC(=O)C2=Cc3cc(-c4cc5ccccc5o4)ccc3S(=O)(=O)CC2)cc1)C1CCOCC1 | 234 to 235 |
| O=C1CNc2cccc(Oc3cc(-c4ccc(C(F)(F)F)cc4)ncn3)c2N1 | 305 |

| Structure (SMILES) | melting point [°C] |
| --- | --- |
| Cc1cccc(-c2[nH]c(C(C)C)nc2-c2cccc(-c3ccccc3F)c2)n1 | 153 to 155 |
| CCCCCCCC(CCCCCCCCC(CCCCCCC)NC(C)=O)NC(C)=O (stereo not given) | 158 to 162 |
| CCc1cn(C2CC(I)C(CO)O2)c(=O)[nH]c1=O (stereo not given) | 162 to 164 |
| Cc1c(OC(=O)C(C)(C)C)c(=O)ccn1C | 112 to 113 |
| CC(=O)Nc1cccc(Br)n1 | 157 |
| O=C(O)CCC(=O)NCCCCCC1CCSS1 (stereo not given) | 74 |
| NCC(=O)c1ncn(Cc2ccccc2)c1N | 156 to 162 |
| Cc1cn(C(C)(C)C(=O)N(C)C)nc1-c1ccccc1Br | 192 to 194 |
| Cc1noc(NS(=O)(=O)c2nccs2)c1Br | 175 to 177 |
| O=C1C=C(c2c[nH]c3ccc(OCc4ccccc4)cc23)C(=O)N1 | 211 |
| CNC(=O)Nc1ccc2c(c1)OC(C)(CCl)O2 (stereo not given) | 156 |
| CCCc1c(S)ccc2c(=O)cc(C(=O)O)oc12 | 206 to 208 |
| Brc1ccc(-c2cc(-c3cccc(Br)c3)no2)cc1 | 169 |
| CCCOc1ccc(C(O)CN2CCOCC2)cc1-c1nc2c(CCC)nn(C)c2c(=O)[nH]1 (stereo not given) | 104 to 105 |
| O=C(O)c1ccc(-n2nnnc2S)cc1 | 198 |
| CCOC(=O)Nc1cc2c(c(N)n1)N=C(c1ccccc1)[C@@H](C)N2 | 148 to 151 |
| OCc1ccccc1SCCN1CCN(c2ccccc2)CC1 | 72 to 74 |
| C#CCn1c(-c2ccccc2)nc(C#C)c(CC)c1=O | 134 to 136 |
| OC1CCc2c(Br)cccc21 (single isomer, unassigned; (-)) | 81 |
| CCOC(=O)C(C)=C(CC)NC(=O)Nc1cc(OC(C)C)c(Cl)cc1F | 104 to 106 |
| Cc1cc(C#N)sc1-c1ccc2c(c1)C(C)(C)C(=O)N2 | 192 to 193 |
| N=C(Nc1ccc2[nH]cc(C3CCN(C(=O)c4ccccc4)CC3)c2c1)c1cccs1 | 180 to 183 |
| CC1Cc2c(c3ccccc3n2C(=O)c2ccccc2)C(C)C1C(=O)O (stereo not given) | 142 to 145 |

| Structure (SMILES) | melting point [°C] |
| --- | --- |
| Cc1ccc(S(=O)(=O)N2CCCC2c2ccc(C(F)(F)F)cc2)cc1 (racemic) | 99 |
| COc1c(F)cc2[nH]c(=O)c(=O)[nH]c2c1[N+](=O)[O-] | 290 to 292 |
| COc1ccc(Cl)cc1C(C)(C)O | 56 |
| COc1ccccc1-c1cccc([N+](=O)[O-])c1 | 68 to 69 |
| N#Cc1ccc2[nH]c3c(c2c1)CC(NC(=O)OCc1ccccc1)CC3 (stereo not given) | 141 to 143 |
| COC(=O)c1ccc(Cl)cc1NC(=O)CSc1ccccc1Cl | 99 to 101 |
| C#Cc1cc(C)c(C2=C(O)C3(CCN(OC)CC3)N(C)C2=O)c(C)c1 | 258 to 260 |
| O=C(Oc1ccc(S(=O)(=O)Nc2ccccc2)cc1)c1ccc(CCBr)cc1 | 156 to 157 |
| CCN(CC)CCC(=O)NC1(c2ccccc2Cl)C(=O)N(S(=O)(=O)c2ccc3c(c2)CCN3C(=O)N(CC)CC)c2ccc(Cl)cc21 (stereo not given) | 130 to 133 |
| CC(=O)Oc1c(C)cc(Oc2ccc3nc(CO)n(C)c3n2)c(C)c1C | 179 to 180 |
| N#Cc1ccc(C(F)(F)F)c(C(F)(F)F)c1 | 71 to 72 |
| CC1(Br)C(Br)=C(Br)C(Br)=C1Br | 60 to 61 |
| N#Cc1cccc(NCCC(=O)O)c1 | 119 |
| CC(C)(C)c1cc(NC(=O)c2cncc3cc(Oc4cc(N)ncn4)ccc23)n(-c2ccc(F)cc2)n1 | 124 to 126 |
| O=C1CCC(N2Cc3c(OCc4ccc(CN5CCC(O)(c6ccccc6)CC5)cc4)cccc3C2=O)C(=O)N1 (stereo not given) | 140 to 142 |
| O=C(O)c1ccc(Cl)cc1Oc1cccc(C(F)(F)F)c1 | 146 |
| COc1cccc(COC(=O)c2ncn3c2[C@@H]2CCCN2C(=O)c2c(Cl)cccc2-3)c1 | 131 to 133 |
| CC12C=CC(=O)C=C1CCC1C2C(=O)CC2(C)C(SCc3ccc(Cl)cc3)CCC12 (stereo not given) | 176 to 180 |
| Cc1cccc(Nc2cc(Nc3cccc(OCC(=O)N(CCO)CCO)c3)ncn2)c1 | 112 to 113 |
| CC(C)(C)NC(=O)c1ccccc1Cc1ccccc1 | 91 to 92 |
| CCNC(=O)c1c(NC(=O)c2cc(C(F)(F)F)nn2-c2ncccc2Cl)c(C)cc2nc(C)ccc12 | > 230 |

Next, values leading:

| melting point [°C] | Structure (SMILES) |
| --- | --- |
| 72 to 74 | Cc1ccc(C2=CCC(=O)CC2)cc1 |
| 124 to 126 | CCCCCCCc1ccc(C(=O)c2cccc(C(=O)O)c2)cc1 |
| 175 to 176 | O=C(O)C(=CNc1ccc(O)c(=O)cc1)C(=O)O |
| 109 | COC(=O)C1=C(C)NC(C)=C(C(=O)O)C1c1ccccc1C(F)(F)F (single isomer, unassigned; (+)) |
| 217 to 218 | Cc1nc(N2CCN(Cc3ccccc3)C2=O)sc1C(N)=O |
| 187 to 188 | Cn1ccc2ccc(N3Cc4ccc(-c5cccnc5)cc4C3=O)cc21 |
| 189 to 190 | CC(C)c1cc(-c2c3ccccc3c(Br)c3sc4ccccc4c23)cc(C(C)C)c1O |
| 197 to 198 | CCOC(=O)c1c(CCl)nc2cc3c(cc2c1-c1ccc(OC)c(OC)c1)OCCO3 |
| 261 | Cc1cccc(C2C(C#N)=C(C(C)C)Nc3n[nH]cc32)c1[N+](=O)[O-] (stereo not given) |
| 112 to 115 | COc1cc(N)ccc1-c1sc(C)nc1C |
| 164 to 166 | CCN(CC)CCCn1[nH]c(C)c2c(=O)nc(-c3ccncc3)nc1-2 |
| 254 to 257 | CCOC(=O)c1cn(NC=O)c2cc(-n3cccc3)c(F)cc2c1=O |
| 113 | CCOC(=O)COc1cc2c(c(Cl)c1Cl)C(=O)C(C)(C(C)C)C2 (stereo not given) |
| 50 to 51 | CC1CCC(C(C)C)C(OC(=O)C(O)c2ccccc2)C1 (single isomer, unassigned; (-)) |
| 120 to 122 | O=C(NCC1CC1)c1ccc(-c2ccc3nnn(Cc4ccc5ncccc5c4)c3n2)cc1F |
| 135 to 136 | COC(=O)COc1ccc(C(=O)CN)cc1 |
| 158 to 159 | O=C(NNS(=O)(=O)c1ccccc1)c1ccccc1CCc1ccccc1 |

| melting point [°C] | Structure (SMILES) |
| --- | --- |
| 156 to 157 | O=c1ccn(-c2cccc(C(F)(F)F)c2)nc1-c1ccnn1Cc1ccccc1 |
| 198 to 200 | CCOC(=O)Cn1c(C(=O)O)cc2cc(Cl)ccc21 |
| 134 | CCOC(=O)C1CCc2ccc3[nH]c(C(F)(F)F)nc3c2O1 (stereo not given) |
| 245 to 246 | Cc1nc(N)nc(N)c1N=Nc1ccc(Br)cc1 |
| 210 to 212 | CN(C)c1ccc(C(c2ccc(N(C)C)cc2)c2ccc(N(C)C)cc2C(=O)O)cc1 |
| 130 | CCN1CCC(CCC2CCN(c3ncnc4cc(OC)c(OC)cc34)CC2)S1(=O)=O (stereo not given) |
| 169 to 170 | COc1cc(-c2oc3c(OC)cc(/C=C/C=O)cc3c2C)ccc1O |
| 33 to 34 | CCC(CC)n1nc(C)c2c(Cl)nc(C)nc21 |
| 228 | Cc1nc(-c2cccc(C(=O)N[C@H]3CC[C@H](CCN4CCN(c5nccc6c5OCC6)CC4)CC3)c2)no1 |
| 231 to 233 | O=C(C=Cc1ccc(NC(=O)c2ccc3ccccc3c2)cc1)NO |
| 78 | CCN(CC)C(=O)c1cc(-c2ccccc2)c2sccc2c1 |
| 118 to 119 | Cc1ccccc1P(=NC(=O)OC1CCOC1)(c1ccccc1)c1ccccc1 (stereo not given) |
| 93 to 94 | CCOP(=O)(CNC(CCCc1ccccc1)c1cc(C(C)(C)C)c(O)c(C(C)(C)C)c1)OCC (stereo not given) |
| 59 | Cc1cc(C=O)c(OCCCCCCCCc2ccccc2)c(C=O)c1 |
| 101 to 103 | COP(=O)(OC)C1=C(C)NC(C)=C(C(=O)OCCN(C)Cc2ccccc2)C1c1cccc([N+](=O)[O-])c1 (stereo not given) |
| 104 | CC(C)OC(=O)C(C)Oc1ncn(-c2ccccc2)n1 (stereo not given) |
